# Tested on: MV-4-11 cells
# Assay: Gene expression microarray analysis (Affymetrix PrimeView) and GSEA
# Type: cell-based, human
# Parameters: RFU PODN (11730768_x_at) / Fold change /veh PODN (11730768_x_at) / RFU LINC00158 (11744669_a_at) / Fold change /veh LINC00158 (11744669_a_at) / RFU DUSP10 (11751237_a_at) / Fold change /veh DUSP10 (11751237_a_at) / RFU ID3 (11757404_x_at) / Fold change /veh ID3 (11757404_x_at) / RFU PLEKHG5 (11737974_s_at) / Fold change /veh PLEKHG5 (11737974_s_at) / RFU LRRC4B (11730491_at) / Fold change /veh LRRC4B (11730491_at) / RFU GIMAP4 (11747438_a_at) / Fold change /veh GIMAP4 (11747438_a_at) / RFU KRT8 (11758183_x_at) / Fold change /veh KRT8 (11758183_x_at) / RFU CNN1 (11734310_a_at) / Fold change /veh CNN1 (11734310_a_at) / RFU VPS37D (11726825_at) / Fold change /veh VPS37D (11726825_at) / RFU C10orf10 (11716522_x_at) / Fold change /veh C10orf10 (11716522_x_at) / RFU KIR2DL2 /// KIR2DL4 /// KIR2DL5A /// KIR2DL5B /// KIR2DS1 /// KIR2DS2 /// KIR2DS3 /// KIR2DS4 /// KIR3DL3 /// KIR3DL3 /// KIR3DS1 (11738374_at) / Fold change /veh KIR2DL2 /// KIR2DL4 /// KIR2DL5A /// KIR2DL5B /// KIR2DS1 /// KIR2DS2 /// KIR2DS3 /// KIR2DS4 /// KIR3DL3 /// KIR3DL3 /// KIR3DS1 (11738374_at) / RFU C1QL1 (11718748_at) / Fold change /veh C1QL1 (11718748_at) / RFU TMPRSS4 (11747572_a_at) / Fold change /veh TMPRSS4 (11747572_a_at) / RFU HAMP (11756126_x_at) / Fold change /veh HAMP (11756126_x_at) / RFU RNFT2 (11725882_a_at) / Fold change /veh RNFT2 (11725882_a_at) / RFU NR4A2 (11747474_a_at) / Fold change /veh NR4A2 (11747474_a_at) / RFU ABCC12 (11746883_a_at) / Fold change /veh ABCC12 (11746883_a_at) / RFU TMEM136 (11760407_x_at) / Fold change /veh TMEM136 (11760407_x_at) / RFU CLDN22 /// WWC2 (11732394_at) / Fold change /veh CLDN22 /// WWC2 (11732394_at) / RFU HLA-DPB1 (11760878_x_at) / Fold change /veh HLA-DPB1 (11760878_x_at) / RFU SPINT1 (11716480_a_at) / Fold change /veh SPINT1 (11716480_a_at) / RFU GAP43 (11754022_s_at) / Fold change /veh GAP43 (11754022_s_at) / RFU A4GNT (11735810_at) / Fold change /veh A4GNT (11735810_at) / RFU PRB3 (11715151_x_at) / Fold change /veh PRB3 (11715151_x_at) / RFU TUBB4B (11761932_at) / Fold change /veh TUBB4B (11761932_at) / RFU CAPN14 (11732068_a_at) / Fold change /veh CAPN14 (11732068_a_at) / RFU TMCC2 (11721928_a_at) / Fold change /veh TMCC2 (11721928_a_at) / RFU IRGQ (11745062_a_at) / Fold change /veh IRGQ (11745062_a_at) / RFU FAM174B (11720279_a_at) / Fold change /veh FAM174B (11720279_a_at) / RFU TMPRSS4 (11748680_a_at) / Fold change /veh TMPRSS4 (11748680_a_at) / RFU FAM212B (11763350_a_at) / Fold change /veh FAM212B (11763350_a_at) / RFU PLEKHG5 (11743358_a_at) / Fold change /veh PLEKHG5 (11743358_a_at) / RFU ZSCAN30 (11745921_a_at) / Fold change /veh ZSCAN30 (11745921_a_at) / RFU CMKLR1 (11741424_a_at) / Fold change /veh CMKLR1 (11741424_a_at) / RFU LOC101060620 /// MAPK8IP1 (11723275_at) / Fold change /veh LOC101060620 /// MAPK8IP1 (11723275_at) / RFU SPTSSB (11747773_x_at) / Fold change /veh SPTSSB (11747773_x_at) / RFU PRSS12 (11739890_at) / Fold change /veh PRSS12 (11739890_at) / RFU BIN1 (11741810_x_at) / Fold change /veh BIN1 (11741810_x_at) / RFU WNT11 (11732464_a_at) / Fold change /veh WNT11 (11732464_a_at) / RFU C10orf10 (11716521_a_at) / Fold change /veh C10orf10 (11716521_a_at) / RFU C5orf56 (11738089_at) / Fold change /veh C5orf56 (11738089_at) / RFU CYB561 (11721691_x_at) / Fold change /veh CYB561 (11721691_x_at) / RFU ANKRD19P (11752326_a_at) / Fold change /veh ANKRD19P (11752326_a_at) / RFU OR2T12 /// OR2T33 /// OR2T8 (11738714_s_at) / Fold change /veh OR2T12 /// OR2T33 /// OR2T8 (11738714_s_at) / RFU VCAN (11748164_a_at) / Fold change /veh VCAN (11748164_a_at) / RFU JSRP1 (11732532_at) / Fold change /veh JSRP1 (11732532_at) / RFU KRTAP10-11 (11738290_x_at) / Fold change /veh KRTAP10-11 (11738290_x_at) / RFU MYO3A (11730013_a_at) / Fold change /veh MYO3A (11730013_a_at) / RFU EBF3 (11725865_a_at) / Fold change /veh EBF3 (11725865_a_at) / RFU CAMK2N1 (11719241_x_at) / Fold change /veh CAMK2N1 (11719241_x_at) / RFU C5orf56 (11738088_a_at) / Fold change /veh C5orf56 (11738088_a_at) / RFU OLFML3 (11715873_a_at) / Fold change /veh OLFML3 (11715873_a_at) / RFU LOC100653217 /// NTM (11731650_a_at) / Fold change /veh LOC100653217 /// NTM (11731650_a_at) / RFU MAPK11 (11762145_a_at) / Fold change /veh MAPK11 (11762145_a_at) / RFU FIZ1 (11724087_x_at) / Fold change /veh FIZ1 (11724087_x_at) / RFU OASL (11726364_x_at) / Fold change /veh OASL (11726364_x_at) / RFU SOX15 (11748057_x_at) / Fold change /veh SOX15 (11748057_x_at) / RFU CD79A (11719716_a_at) / Fold change /veh CD79A (11719716_a_at) / RFU HIST1H1D (11736915_at) / Fold change /veh HIST1H1D (11736915_at) / RFU CASKIN2 (11723855_a_at) / Fold change /veh CASKIN2 (11723855_a_at) / RFU LOC730098 (11760151_x_at) / Fold change /veh LOC730098 (11760151_x_at) / RFU OR4N2 (11742367_at) / Fold change /veh OR4N2 (11742367_at) / RFU PRRT2 (11749266_a_at) / Fold change /veh PRRT2 (11749266_a_at) / RFU SNX32 (11753110_a_at) / Fold change /veh SNX32 (11753110_a_at) / RFU CDHR5 (11726645_a_at) / Fold change /veh CDHR5 (11726645_a_at) / RFU RCAN1 (11760418_a_at) / Fold change /veh RCAN1 (11760418_a_at) / RFU FAM167A (11723789_a_at) / Fold change /veh FAM167A (11723789_a_at) / RFU FAM26E (11764081_at) / Fold change /veh FAM26E (11764081_at) / RFU ISYNA1 (11749810_s_at) / Fold change /veh ISYNA1 (11749810_s_at) / RFU ACY1 (11761880_at) / Fold change /veh ACY1 (11761880_at) / RFU 11764098_at / Fold change /veh 11764098_at / RFU SAMD14 (11745864_x_at) / Fold change /veh SAMD14 (11745864_x_at) / RFU NPB (11741838_a_at) / Fold change /veh NPB (11741838_a_at) / RFU TMPRSS6 (11731388_a_at) / Fold change /veh TMPRSS6 (11731388_a_at) / RFU KRTAP10-2 (11738614_at) / Fold change /veh KRTAP10-2 (11738614_at) / RFU ARHGAP8 /// PRR5-ARHGAP8 (11727945_x_at) / Fold change /veh ARHGAP8 /// PRR5-ARHGAP8 (11727945_x_at) / RFU KRTAP5-7 /// NADSYN1 (11734609_at) / Fold change /veh KRTAP5-7 /// NADSYN1 (11734609_at) / RFU RASL12 (11751679_a_at) / Fold change /veh RASL12 (11751679_a_at) / RFU CDKN2B (11736163_a_at) / Fold change /veh CDKN2B (11736163_a_at) / RFU PRF1 (11729649_at) / Fold change /veh PRF1 (11729649_at) / RFU, ZNF638 /// ZNF638-IT1 / Fold change vs veh, ZNF638 /// ZNF638-IT1 / RFU, PANK3 / Fold change vs veh, PANK3 / RFU, SH3YL1 / Fold change vs veh, SH3YL1 / RFU, ZEB2 / Fold change vs veh, ZEB2 / RFU, NRIP1 / Fold change vs veh, NRIP1 / RFU, PTTG1IP / Fold change vs veh, PTTG1IP / RFU, CAPN2 / Fold change vs veh, CAPN2 / RFU, MED14 / Fold change vs veh, MED14 / RFU, SNORA58 / Fold change vs veh, SNORA58 / RFU, C1orf63 / Fold change vs veh, C1orf63 / RFU, LRRFIP1 / Fold change vs veh, LRRFIP1 / RFU, NDUFAF7 / Fold change vs veh, NDUFAF7 / RFU, SLC12A2 / Fold change vs veh, SLC12A2 / RFU, IBTK / Fold change vs veh, IBTK / RFU, ESF1 / Fold change vs veh, ESF1 / Fold change vs veh, TMEM50B / RFU, TAOK1 / Fold change vs veh, TAOK1 / RFU, ACBD3 / Fold change vs veh, ACBD3 / RFU, TMA16 / Fold change vs veh, TMA16 / RFU, RWDD3 / Fold change vs veh, RWDD3 / RFU, BCAT1 / Fold change vs veh, BCAT1 / RFU, EDEM3 / Fold change vs veh, EDEM3 / RFU, TMEM33 / Fold change vs veh, TMEM33 / RFU, WDR75 / Fold change vs veh, WDR75 / RFU, AHCTF1 / Fold change vs veh, AHCTF1 / RFU, TFRC / Fold change vs veh, TFRC / RFU, ZDHHC17 / Fold change vs veh, ZDHHC17 / RFU, NOM1 / Fold change vs veh, NOM1 / RFU, ARL8B / Fold change vs veh, ARL8B / RFU, ZBTB11 / Fold change vs veh, ZBTB11 / RFU, TAMM41 / Fold change vs veh, TAMM41 / RFU, KIAA1704 /// LOC100996395 / Fold change vs veh, KIAA1704 /// LOC100996395 / RFU, ING1 / Fold change vs veh, ING1 / RFU, TRMT61B / Fold change vs veh, TRMT61B / RFU, FUBP3 / Fold change vs veh, FUBP3 / RFU, TP53 / Fold change vs veh, TP53 / RFU, TNKS2 / Fold change vs veh, TNKS2 / RFU, ZFP14 / Fold change vs veh, ZFP14 / RFU, ACTR2 / Fold change vs veh, ACTR2 / RFU, PPP3R1 / Fold change vs veh, PPP3R1 / RFU, PIK3R1 / Fold change vs veh, PIK3R1 / RFU, HNRNPA1 / Fold change vs veh, HNRNPA1 / RFU, RNF170 / Fold change vs veh, RNF170 / RFU, ZNF28 / Fold change vs veh, ZNF28 / RFU, RNGTT / Fold change vs veh, RNGTT / RFU, OGT / Fold change vs veh, OGT / RFU, BRD1 / Fold change vs veh, BRD1 / RFU, MARS / Fold change vs veh, MARS / RFU, ZNF655 / Fold change vs veh, ZNF655 / RFU, FAHD1 / Fold change vs veh, FAHD1 / RFU, BDP1 / Fold change vs veh, BDP1 / RFU, LRRCC1 / Fold change vs veh, LRRCC1 / RFU, ARID1A / Fold change vs veh, ARID1A / RFU, ZNF146 / Fold change vs veh, ZNF146 / RFU, ZNF330 / Fold change vs veh, ZNF330 / RFU, GPN3 / Fold change vs veh, GPN3 / RFU, C9orf123 / Fold change vs veh, C9orf123 / RFU, N4BP2L2 / Fold change vs veh, N4BP2L2 / RFU, ARFIP1 / Fold change vs veh, ARFIP1 / RFU, FAM179B / Fold change vs veh, FAM179B / RFU, BCL10 / Fold change vs veh, BCL10 / RFU, UHRF1BP1L / Fold change vs veh, UHRF1BP1L / RFU, BET1 / Fold change vs veh, BET1 / RFU, CNOT2 / Fold change vs veh, CNOT2 / RFU, ZNF268 / Fold change vs veh, ZNF268 / Fold change vs veh, ZNF507 / RFU, DGCR2 / Fold change vs veh, DGCR2 / RFU, WDSUB1 / Fold change vs veh, WDSUB1 / Fold change vs veh, HSP90B1 /// MIR3652 / RFU, ADSS / Fold change vs veh, ADSS / RFU, GK / Fold change vs veh, GK / RFU, ZNF148 / Fold change vs veh, ZNF148 / RFU, TAF9 / Fold change vs veh, TAF9 / RFU, SLC1A5 / Fold change vs veh, SLC1A5 / RFU, SLMO2 / Fold change vs veh, SLMO2 / RFU, ABCC4 / Fold change vs veh, ABCC4 / RFU, LOC101060439 /// RAP1B / Fold change vs veh, LOC101060439 /// RAP1B / RFU, RFX7 / Fold change vs veh, RFX7 / RFU, GTPBP10 / Fold change vs veh, GTPBP10 / RFU, CNEP1R1 / Fold change vs veh, CNEP1R1 / RFU, BIVM-ERCC5 /// ERCC5 / Fold change vs veh, BIVM-ERCC5 /// ERCC5 / RFU, ILF3 / Fold change vs veh, ILF3 / RFU 11762660_at / Fold change /veh 11762660_at / RFU VCAN (11757783_s_at) / Fold change /veh VCAN (11757783_s_at) / RFU DDX43 (11728927_at) / Fold change /veh DDX43 (11728927_at) / RFU KRT8 (11758188_x_at) / Fold change /veh KRT8 (11758188_x_at) / RFU NKD1 (11759106_at) / Fold change /veh NKD1 (11759106_at) / RFU SRD5A1 (11742802_a_at) / Fold change /veh SRD5A1 (11742802_a_at) / RFU TPSAB1 /// TPSB2 (11721975_s_at) / Fold change /veh TPSAB1 /// TPSB2 (11721975_s_at) / RFU GSTM3 (11746129_a_at) / Fold change /veh GSTM3 (11746129_a_at) / RFU IL23R (11737362_x_at) / Fold change /veh IL23R (11737362_x_at) / RFU TMEM51 (11727254_a_at) / Fold change /veh TMEM51 (11727254_a_at) / RFU PIWIL2 (11732686_x_at) / Fold change /veh PIWIL2 (11732686_x_at) / RFU ORM1 (11744905_x_at) / Fold change /veh ORM1 (11744905_x_at) / RFU CCDC152 (11743942_at) / Fold change /veh CCDC152 (11743942_at) / RFU ECM1 (11717891_a_at) / Fold change /veh ECM1 (11717891_a_at) / RFU IL23R (11748794_a_at) / Fold change /veh IL23R (11748794_a_at) / RFU TNFAIP8L3 (11732012_x_at) / Fold change /veh TNFAIP8L3 (11732012_x_at) / RFU MBOAT4 (11741988_at) / Fold change /veh MBOAT4 (11741988_at) / RFU 11764193_at / Fold change /veh 11764193_at / RFU TMEM53 (11763286_at) / Fold change /veh TMEM53 (11763286_at) / RFU MAGEB2 (11727129_at) / Fold change /veh MAGEB2 (11727129_at) / RFU TMEM200A (11744735_a_at) / Fold change /veh TMEM200A (11744735_a_at) / RFU CCDC152 (11751479_a_at) / Fold change /veh CCDC152 (11751479_a_at) / RFU FAM211A (11726209_a_at) / Fold change /veh FAM211A (11726209_a_at) / RFU RGS16 (11746705_a_at) / Fold change /veh RGS16 (11746705_a_at) / RFU VCAN (11755009_s_at) / Fold change /veh VCAN (11755009_s_at) / RFU RHOB (11743442_s_at) / Fold change /veh RHOB (11743442_s_at) / RFU RGS16 (11720943_a_at) / Fold change /veh RGS16 (11720943_a_at) / RFU RGS16 (11720944_at) / Fold change /veh RGS16 (11720944_at) / RFU, VPS4B / Fold change vs veh, VPS4B / RFU, CREB1 / Fold change vs veh, CREB1 / RFU, DNAJC13 / Fold change vs veh, DNAJC13 / RFU, GNAQ / Fold change vs veh, GNAQ / RFU, CDK5R1 / Fold change vs veh, CDK5R1 / RFU, ZRANB3 / Fold change vs veh, ZRANB3 / RFU, CUL4A / Fold change vs veh, CUL4A / RFU, CCNY / Fold change vs veh, CCNY / RFU, UFL1 / Fold change vs veh, UFL1 / RFU, COG3 / Fold change vs veh, COG3 / RFU, DIAPH2 / Fold change vs veh, DIAPH2 / RFU, SKA2 / Fold change vs veh, SKA2 / RFU, AFF3 / Fold change vs veh, AFF3 / RFU, LMF1 / Fold change vs veh, LMF1 / RFU, IPO11 / Fold change vs veh, IPO11 / RFU, DFFB / Fold change vs veh, DFFB / RFU, FOXP1 / Fold change vs veh, FOXP1 / RFU, CARD8 / Fold change vs veh, CARD8 / RFU, STRN3 / Fold change vs veh, STRN3 / RFU, ADK / Fold change vs veh, ADK / RFU, RASSF2 / Fold change vs veh, RASSF2 / RFU, WIPF1 / Fold change vs veh, WIPF1 / RFU, LARP1B / Fold change vs veh, LARP1B / RFU, RASA1 / Fold change vs veh, RASA1 / RFU, RB1 / Fold change vs veh, RB1 / RFU, PPFIA1 / Fold change vs veh, PPFIA1 / RFU, MAT2A / Fold change vs veh, MAT2A / RFU, CCT5 / Fold change vs veh, CCT5 / RFU, WDR92 / Fold change vs veh, WDR92 / RFU, CUX1 / Fold change vs veh, CUX1 / RFU, TTC7A / Fold change vs veh, TTC7A / RFU, TMEM135 / Fold change vs veh, TMEM135 / RFU, DEPTOR / Fold change vs veh, DEPTOR / RFU, CPM / Fold change vs veh, CPM / RFU, DNAJB6 / Fold change vs veh, DNAJB6 / RFU, CACNA2D3 / Fold change vs veh, CACNA2D3 / RFU, DTX4 / Fold change vs veh, DTX4 / RFU, TFCP2 / Fold change vs veh, TFCP2 / RFU, GMCL1 /// GMCL1P1 / Fold change vs veh, GMCL1 /// GMCL1P1 / RFU, AEBP2 / Fold change vs veh, AEBP2 / RFU, SNHG1 /// SNORD22 /// SNORD25 /// SNORD26 /// SNORD27 /// SNORD28 /// SNORD29 /// SNORD31 / Fold change vs veh, SNHG1 /// SNORD22 /// SNORD25 /// SNORD26 /// SNORD27 /// SNORD28 /// SNORD29 /// SNORD31 / Fold change (Aza/veh), C12orf56 (ProbeSet 11735607_a_at) / Fold change (ACY-1035/veh), C12orf56 (ProbeSet 11735607_a_at) / Fold change (Aza/veh), FGFR1OP (ProbeSet 11751329_s_at) / Fold change (ACY-1035/veh), FGFR1OP (ProbeSet 11751329_s_at) / Fold change (Aza/veh), VPS36 (ProbeSet 11739960_a_at) / Fold change (ACY-1035/veh), VPS36 (ProbeSet 11739960_a_at) / RFU SYPL1 (11715823_x_at) / Fold change /veh SYPL1 (11715823_x_at) / RFU IGFBP7 (11715501_s_at) / Fold change /veh IGFBP7 (11715501_s_at) / RFU REEP3 (11722064_at) / Fold change /veh REEP3 (11722064_at) / RFU IGLL1 (11728026_x_at) / Fold change /veh IGLL1 (11728026_x_at): dose or concentration left out as unconfirmed
# Details: ProbeSet 11725217_a_at; LIST B
structure (smiles),measurement,value
Nc1ccc(-c2cccs2)cc1NC(=O)c1ccc2c(c1)cc(C1CC1)n2CCN1CCOCC1 [ACY-1035],"RFU, WDSUB1",59.59 RFU
